Experimental findings from paper PMC11157491, “Novel Alaninamide Derivatives with Drug-like Potential for Development as Antiseizure and Antinociceptive Therapies—In Vitro and In Vivo Characterization” (ACS Chemical Neuroscience, 2024) are described below.

SMILES strings stand for the structures.

Assay [1] has as its system mice. Nature of the assay: Timed ivPTZ seizure threshold test. It counts as in vivo. The conditions noted are these: 50 mg/kg i.p. The text has this: The timed intravenous (iv) PTZ-induced seizure test was used to characterize the acute effect of compounds 26 and 28 on the thresholds for myoclonic, clonic, and tonic seizure in mice (Figure 2). It is noteworthy that the ivPTZ seizure test is a very sensitive method for determining the compounds’ effects on seizure threshold in rodents.[35] […] In the ivPTZ seizure test, bilateral forelimb tonic extension is usually quickly followed by hindlimb tonic extension and death due to respiratory arrest. […] In mice with no forelimb tonus, PTZ infusion was stopped after 180 s and the threshold dose of PTZ (in mg/kg) was calculated in those mice taking 180 s as infusion duration.
Figure 2 Acute effects of compounds 26 (A) and 28 (B) on seizure thresholds in the timed ivPTZ seizure test in mice. Both compounds were administered i.p. at a dose of 50 mg/kg, 30 min before the test. Control animals received vehicle. Data are presented as means (mg/kg PTZ) ± SEM (n = 9–13 animals). The statistical significance was evaluated by a Student’s t-test: *p < 0.05, **p < 0.01, ***p < 0.001, and ****p < 0.0001, as compared to the vehicle-treated group (GraphPad Prism 8).
In studies assessing the acute effect of compounds 26 and 28 on the ivPTZ seizure threshold and neuromuscular strength, the compounds were suspended in a 1% solution of Tween 80 and administered i.p., at a dose of 50 mg/kg of body weight, 30 min before the tests. The experimental procedures of the timed ivPTZ test and the grip strength test were described in detail elsewhere.[64]
Data from the ivPTZ test and the grip strength test were analyzed using Student’s t-test.

The target in assay [2] is 5-HT2C (h) (Homo sapiens, UniProt P28335). Nature of the assay: 5-HT2C agonist effect functional assay. The class given is cell-based. The conditions noted are these: HEK293, human recombinant HEK-293 cell, read-out: % inhibition of control agonist response (5-HT2C agonist effect). As to the method:
Importantly, sodium or calcium conductance is often associated with the pathophysiology of epilepsy as well as neuropathic pain.[46]−[50] Therefore, both sodium and calcium ion channels are well-established molecular targets for structurally diverse ASMs such as LCS, lamotrigine, carbamazepine, oxcarbazepine, etc.[51] Consequently, we carried out binding and/or functional studies toward the sodium channel (site 2) and calcium Cav1.2 channel at high concentrations (100 μM) of 26 and 28 (Table 5). […] Next, 26 and 28 due to the presence of the phenylpiperazine moiety, which is a well-recognized pharmacophore for serotoninergic receptor (5-HTxR) ligands,[52] were evaluated for their influence on 5-HT2CR, where stimulation plays a key role for the antiseizure activity of lorcaserin (one of the newest ASMs).[6]
(§1) Binding/functional studies were carried out commercially in Eurofins Laboratories (Poitiers, France) and Eurofins Panlabs Discovery Services Taiwan, Ltd. (New Taipei City, Taiwan) using testing procedures that were reported previously (for details, see Table S2).
(§2) Table S2. Radioligand binding and functional assays. […]
5-HT2C (agonist effect)
(§3) Assays were performed commercially in Eurofins Laboratories ( Poitiers, France) or Eurofins Panlabs Discovery Services
(§4) Taiwan, Ltd. (New Taipei City, Taiwan).

For assay [3], the target named is T1, TRPV1 (VR1) (h) (Homo sapiens, UniProt Q8NER1).
T1 construct: Eurofins (contract assay)
T1 sequence (Q8NER1 whole entry): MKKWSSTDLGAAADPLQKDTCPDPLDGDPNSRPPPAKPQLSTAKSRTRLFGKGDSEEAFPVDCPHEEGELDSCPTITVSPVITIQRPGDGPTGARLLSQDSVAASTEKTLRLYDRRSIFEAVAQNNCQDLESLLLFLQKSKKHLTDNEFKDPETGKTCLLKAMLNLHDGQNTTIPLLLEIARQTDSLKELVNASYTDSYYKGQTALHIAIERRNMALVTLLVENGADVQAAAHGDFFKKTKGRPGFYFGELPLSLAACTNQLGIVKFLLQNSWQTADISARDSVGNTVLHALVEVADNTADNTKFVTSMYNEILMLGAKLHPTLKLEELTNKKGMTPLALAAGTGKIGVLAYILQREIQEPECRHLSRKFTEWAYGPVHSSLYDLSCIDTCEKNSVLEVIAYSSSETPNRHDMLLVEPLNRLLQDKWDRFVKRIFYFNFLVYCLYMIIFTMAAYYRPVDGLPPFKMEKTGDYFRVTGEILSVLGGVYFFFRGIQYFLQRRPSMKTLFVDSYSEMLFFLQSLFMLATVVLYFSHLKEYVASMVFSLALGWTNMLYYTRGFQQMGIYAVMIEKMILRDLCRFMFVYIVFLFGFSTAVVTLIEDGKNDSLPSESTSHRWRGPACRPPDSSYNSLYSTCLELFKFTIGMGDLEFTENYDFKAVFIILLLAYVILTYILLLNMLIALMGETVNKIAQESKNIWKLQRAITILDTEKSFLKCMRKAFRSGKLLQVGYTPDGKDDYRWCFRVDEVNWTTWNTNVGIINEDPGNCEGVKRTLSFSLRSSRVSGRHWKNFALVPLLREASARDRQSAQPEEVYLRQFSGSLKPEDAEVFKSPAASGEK
The experiment in a line: TRPV1 antagonist effect functional assay. The class given is cell-based. The conditions noted are these: 10 μM, human recombinant CHO cells; read-out: % inhibition of control agonist response. The method, then:
For many years, the TRPV1 channel, permeable to calcium and sodium ions, has been recognized as a promising molecular target for novel analgesics.[19] […] Therefore, bearing in mind the involvement of TRPV1 in pain sensation and potentially in seizure induction, in the next step of the in vitro studies, the TRPV1 antagonist activity was determined for all compounds obtained (Table 6).
as §1, §2
TRPV1 (VR1) (h) (antagonist effect) […]
as §3, §4

5-HT2C (h), sequence (P28335 33-458): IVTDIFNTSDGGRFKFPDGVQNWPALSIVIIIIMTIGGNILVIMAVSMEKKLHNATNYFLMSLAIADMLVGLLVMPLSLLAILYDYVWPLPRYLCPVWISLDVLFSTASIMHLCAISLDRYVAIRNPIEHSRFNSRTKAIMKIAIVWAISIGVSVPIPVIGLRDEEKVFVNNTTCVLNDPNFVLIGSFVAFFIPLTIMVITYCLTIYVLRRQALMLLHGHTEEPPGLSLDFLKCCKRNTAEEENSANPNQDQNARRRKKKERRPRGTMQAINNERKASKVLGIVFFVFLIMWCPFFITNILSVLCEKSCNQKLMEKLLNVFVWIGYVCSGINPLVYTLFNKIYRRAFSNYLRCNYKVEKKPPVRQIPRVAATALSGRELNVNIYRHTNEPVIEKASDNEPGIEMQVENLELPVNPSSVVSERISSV

On to `CC(=O)NC(C)C(=O)N1CCN(c2cccc(C(F)(F)F)c2)CC1` (stereo not drawn) [Compound 26, N-(1-oxo-1-(4-(3-(Trifluoromethyl)phenyl)piperazin-1-yl)propan-2-yl)acetamide], for which the “mice in which hindlimb tonus (only) was diminished/inhibited” value in assay [1] (12 mice) is on record as 10 out of 12. Also, in assay [1] (30 min before ivPTZ), the “seizure threshold for generalized clonic seizure with loss of righting reflex” value is given as “significantly raised”, the “seizure threshold for the first myoclonic twitch” value is listed as “significantly raised” and the “threshold for forelimb tonus” value is recorded as “did not significantly affect”. Besides, the inhibition at 10 µM in assay [2] is 0.5%. Further, the inhibition at 10 µM in assay [3] is -4.9%.

Take `CC(=O)NC(C)C(=O)N1CCN(c2cccc(OC(F)(F)F)c2)CC1` (stereo not drawn) [Compound 28, N-(1-oxo-1-(4-(3-(Trifluoromethoxy)phenyl)piperazin-1-yl)propan-2-yl)acetamide]: in assay [1] (12 mice), the “mice in which both fore- and hindlimb tonus were completely inhibited” value was 9 out of 12; the “mice in which hindlimb tonus (only) was diminished/inhibited” value worked out at 3 mice. Moreover, in assay [1] (30 min before ivPTZ), the “seizure threshold for generalized clonic seizure with loss of righting reflex” value was “significantly raised” and the “seizure threshold for the first myoclonic twitch” value was “significantly raised”. For the same molecule, the inhibition at 10 µM in assay [2] was 0.1%. In addition, in assay [3], the inhibition at 10 µM came to 6.5%.
